# Results as given in article PMC12122562, “Phase 1 studies of the indenoisoquinolines LMP776 and LMP744 in patients with solid tumors and lymphomas” (Cancer Chemotherapy and Pharmacology, 2025).
# “Also recorded” adds a separate entry of the source. Like-named read-outs stand apart in the source and are kept apart here.
# Assay: Plasma pharmacokinetics of LMP776, non-compartmental
# Type: in vivo, human
# Conditions: for half-life / AUC(0-inf) / AUC(0-t) / Cmax / Tmax: human, plasma, intravenous
# Description: Blood was collected during cycle 1 in the LMP744 study on C1D1 at the end of infusion (EOI), then again at 0.25, 0.5, 1, 2, 4, and 6 h after EOI. Blood was also collected prior to infusion and at EOI on days 2–5 during cycle 1, then again at 1 week (168 h) after C1D1 EOI. Samples were collected in EDTA tubes with 2 mL of blood per sample. Samples were centrifuged and plasma was stored at − 70 °C. Samples were analyzed using a validated LC–MS or LC–MS/MS method for each IIQ as previously described. Plasma-time data were analyzed using WinNonlin (Pharsight, Mountain View, CA). AUC values were calculated by non-compartmental analysis and end-of-infusion concentrations were measured on days 1 and 5 of cycle 1. Sample collection and analysis of LMP776 pharmacokinetics were performed as previously described.
smiles,measurement,setting,value
COc1cc2c3c(n(CCCn4ccnc4)c(=O)c2cc1OC)-c1cc2c(cc1C3=O)OCO2 [LMP776],Cl,"DL1, 1 mg/m2, n=1",2.78 L/h/m2
same,Vd,"DL1, 1 mg/m2, n=1",63.4 L/m2
same,Vss,"DL1, 1 mg/m2, n=1",57.9 L/m2
same,Cl,"DL2, 2 mg/m2, n=7",4.0 (1.1) L/h/m2
same,Vd,"DL2, 2 mg/m2, n=7",58.4 L/m2
same,Vss,"DL2, 2 mg/m2, n=7",54.7 L/m2
same,Cl,"DL3, 3 mg/m2, n=3",2.7 (0.5) L/h/m2
same,Vd,"DL3, 3 mg/m2, n=3",37.5 L/m2
same,Vss,"DL3, 3 mg/m2, n=3",35.4 L/m2
same,Cl,"DL4, 4.5 mg/m2, n=3",3.7 (1.2) L/h/m2
same,Vd,"DL4, 4.5 mg/m2, n=3",49.7 L/m2
same,Vss,"DL4, 4.5 mg/m2, n=3",44.0 L/m2
same,Cl,"DL5, 6.75 mg/m2, n=3",3.8 (1.6) L/h/m2
same,Vd,"DL5, 6.75 mg/m2, n=3",48.2 L/m2
same,Vss,"DL5, 6.75 mg/m2, n=3",41.7 L/m2
same,Cl,"DL6, 9 mg/m2, n=2",3.4 (1.5) L/h/m2
same,Vd,"DL6, 9 mg/m2, n=2",62.7 L/m2
same,Vss,"DL6, 9 mg/m2, n=2",55.8 L/m2
same,Cl,"DL7 (MTD), 12 mg/m2, n=6",3.2 (1.5) L/h/m2
same,Vd,"DL7 (MTD), 12 mg/m2, n=6",40.7 L/m2
same,Vss,"DL7 (MTD), 12 mg/m2, n=6",38.5 L/m2
same,Cl,"DL8, 16 mg/m2, n=7",3.0 (1.4) L/h/m2
same,Vd,"DL8, 16 mg/m2, n=7",39.5 L/m2
same,Vss,"DL8, 16 mg/m2, n=7",37.1 L/m2
same,half-life,"1 mg/m2, DL1, 1 mg/m2, n=1, read-out: t1/2 (converted)",38.6 h
same,half-life,"2 mg/m2, DL2, 2 mg/m2, n=7, read-out: t1/2 (converted)",20.8 h
same,half-life,"3 mg/m2, DL3, 3 mg/m2, n=3, read-out: t1/2 (converted)",13.6 h
same,half-life,"4.5 mg/m2, DL4, 4.5 mg/m2, n=3, read-out: t1/2 (converted)",13.8 h
same,half-life,"6.75 mg/m2, DL5, 6.75 mg/m2, n=3, read-out: t1/2 (converted)",11.5 h
same,half-life,"9 mg/m2, DL6, 9 mg/m2, n=2, read-out: t1/2 (converted)",31.4 h
same,half-life,"12 mg/m2, DL7 (MTD), 12 mg/m2, n=6, read-out: t1/2 (mean half-life) (converted)",12.6 h
same,half-life,"12 mg/m2, MTD (DL7, 12 mg/m^2, n = 6), read-out: Half-life, range",8.2 to 16 h
same,half-life,"16 mg/m2, DL8, 16 mg/m2, n=7, read-out: t1/2 (converted)",13.4 h
same,AUC(0-inf),"DL1, 1 mg/m2, n=1",880 ng·h/mL
same,AUC(0-t),"DL1, 1 mg/m2, n=1",359 ng·h/mL
same,Cmax,"DL1, 1 mg/m2, n=1",46.9 ng/mL
same,Tmax,"DL1, 1 mg/m2, n=1",1 h
same,AUC(0-inf),"DL2, 2 mg/m2, n=7",1060 ng·h/mL
same,AUC(0-t),"DL2, 2 mg/m2, n=7",530 ng·h/mL
same,Cmax,"DL2, 2 mg/m2, n=7",64.4 ng/mL
same,Tmax,"DL2, 2 mg/m2, n=7",1 h
same,AUC(0-inf),"DL3, 3 mg/m2, n=3",1580 ng·h/mL
same,AUC(0-t),"DL3, 3 mg/m2, n=3",1150 ng·h/mL
same,Cmax,"DL3, 3 mg/m2, n=3",124 ng/mL
same,Tmax,"DL3, 3 mg/m2, n=3",1 h
same,AUC(0-inf),"DL4, 4.5 mg/m2, n=3",1850 ng·h/mL
same,AUC(0-t),"DL4, 4.5 mg/m2, n=3",1300 ng·h/mL
same,Cmax,"DL4, 4.5 mg/m2, n=3",178 ng/mL
same,Tmax,"DL4, 4.5 mg/m2, n=3",1 h
same,AUC(0-inf),"DL5, 6.75 mg/m2, n=3",2510 ng·h/mL
same,AUC(0-t),"DL5, 6.75 mg/m2, n=3",1980 ng·h/mL
same,Cmax,"DL5, 6.75 mg/m2, n=3",273 ng/mL
same,Tmax,"DL5, 6.75 mg/m2, n=3",1 h
same,AUC(0-inf),"DL6, 9 mg/m2, n=2",7200 ng·h/mL
same,AUC(0-t),"DL6, 9 mg/m2, n=2",2970 ng·h/mL
same,Cmax,"DL6, 9 mg/m2, n=2",296 ng/mL
same,Tmax,"DL6, 9 mg/m2, n=2",1 h
same,AUC(0-inf),"DL7 (MTD), 12 mg/m2, n=6",5890 ng·h/mL
same,AUC(0-t),"DL7 (MTD), 12 mg/m2, n=6",4270 ng·h/mL
same,Cmax,"DL7 (MTD), 12 mg/m2, n=6",523 ng/mL
same,Tmax,"DL7 (MTD), 12 mg/m2, n=6",1.1 h
same,AUC(0-inf),"DL8, 16 mg/m2, n=7",8920 ng·h/mL
same,AUC(0-t),"DL8, 16 mg/m2, n=7",6170 ng·h/mL
same,Cmax,"DL8, 16 mg/m2, n=7",770 ng/mL
same,Tmax,"DL8, 16 mg/m2, n=7",1.1 h
same,Dependence of half-life on dose,in vivo,did not vary with dose level; also recorded: half-life was independent of dose
same,Systemic exposure (AUC) versus dose level,in vivo,increased linearly with dose level
